Experimental findings from patent US8957001B2, “Particles comprising a biopolymer which is degradable under the effect of an electromagnetic wave as emitted by a solar radiation” (BASF Beauty Care Solutions France SAS, priority 2002, dated 2015) are described below.

The data set is described as follows: Progressive release of an encapsulated active from liposomes under UV irradiation. In kind it is physicochemical. The text has this:
All is done in a manner identical to what is presented in Example 15, but RNA of marine origin, which is commercially available, is used in amounts which are identical to those used in Example 15. All is done in a manner identical to what is presented in Example 15, but DNA of plant origin or RNA of plant origin, which are commercially available (Inocosm), are used in amounts which are identical to those used in Example 15. All is done in a manner identical to what is presented in Example 15, but oligonucleosides or oligonucleotides, which are prepared by chemical synthesis and which are available from companies which manufacture these nucleosides or these nucleotides to order, are used for preparing these particles, in proportions which are identical to those used in Example 15.

`CCCCC(CC)COC(=O)C=Cc1ccc(OC)cc1` (stereo not shown) [Parsol MCX]: the “release under UV irradiation” value by setting is: (encapsulated in plant DNA or plant RNA liposomes (Example 17), after 3 hours of irradiation) 60%; (encapsulated in plant DNA or plant RNA liposomes (Example 17), after 6 hours of irradiation) 96%.
With tocopherol, the “release under UV irradiation” value turned out to be 40% (encapsulated in marine RNA liposomes (Example 16), after 3 hours of irradiation) and 80% (encapsulated in marine RNA liposomes (Example 16), after 6 hours of irradiation).
